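Cultured in 96-well plates, cells were exposed to test compound for 48 hours across five concentrations. Definition used: TGI = concentration required for complete inhibition of growth.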
Legend:
Experiment in all cases: NCI tumour cell line growth inhibition, 48 h
A498 renal = tested on: A498 renal
OVCAR-5 ovarian = tested on: OVCAR-5 ovarian
SF-295 CNS = tested on: SF-295 CNS
MALME-3M melanoma = tested on: MALME-3M melanoma
BT-549 breast = tested on: BT-549 breast
IGROV1 ovarian = tested on: IGROV1 ovarian
SNB-19 CNS = tested on: SNB-19 CNS
NCI-H460 lung = tested on: NCI-H460 lung
SN12C renal = tested on: SN12C renal
T-47D breast = tested on: T-47D breast
COLO 205 colon = tested on: COLO 205 colon
NCI/ADR-RES ovarian = tested on: NCI/ADR-RES ovarian
HCT-116 colon = tested on: HCT-116 colon
RPMI-8226 leukemia = tested on: RPMI-8226 leukemia
UACC-62 melanoma = tested on: UACC-62 melanoma
NCI-H23 lung = tested on: NCI-H23 lung
SNB-75 CNS = tested on: SNB-75 CNS
TK-10 renal = tested on: TK-10 renal
SK-MEL-28 melanoma = tested on: SK-MEL-28 melanoma
HL-60(TB) leukemia = tested on: HL-60(TB) leukemia
ACHN renal = tested on: ACHN renal
SK-MEL-2 melanoma = tested on: SK-MEL-2 melanoma
U251 CNS = tested on: U251 CNS
SK-MEL-5 melanoma = tested on: SK-MEL-5 melanoma
EKVX NSCLC = tested on: EKVX NSCLC
NCI-H226 lung = tested on: NCI-H226 lung
RXF 393 renal = tested on: RXF 393 renal
MDA-MB-231 breast = tested on: MDA-MB-231 breast
OVCAR-8 ovarian = tested on: OVCAR-8 ovarian
MDA-MB-435 = tested on: MDA-MB-435
HT29 colon = tested on: HT29 colon
KM12 colon = tested on: KM12 colon
UACC-257 melanoma = tested on: UACC-257 melanoma
A549 NSCLC = tested on: A549 NSCLC
DU-145 prostate = tested on: DU-145 prostate
MCF7 breast = tested on: MCF7 breast
LOX IMVI melanoma = tested on: LOX IMVI melanoma
HOP-92 NSCLC = tested on: HOP-92 NSCLC
CAKI-1 renal = tested on: CAKI-1 renal
CCRF-CEM leukemia = tested on: CCRF-CEM leukemia
MOLT-4 leukemia = tested on: MOLT-4 leukemia
OVCAR-3 ovarian = tested on: OVCAR-3 ovarian
SF-268 CNS = tested on: SF-268 CNS
HCT-15 colon = tested on: HCT-15 colon
UO-31 renal = tested on: UO-31 renal
786-0 renal = tested on: 786-0 renal
PC-3 prostate = tested on: PC-3 prostate
HCC-2998 colon = tested on: HCC-2998 colon
MDA-N = tested on: MDA-N
SK-OV-3 ovarian = tested on: SK-OV-3 ovarian
K-562 leukemia = tested on: K-562 leukemia
SW-620 colon = tested on: SW-620 colon
M14 melanoma = tested on: M14 melanoma
OVCAR-4 ovarian = tested on: OVCAR-4 ovarian
NCI-H522 lung = tested on: NCI-H522 lung
SF-539 CNS = tested on: SF-539 CNS
HOP-62 NSCLC = tested on: HOP-62 NSCLC
SR leukemia = tested on: SR leukemia

**Q.** CN1C(=O)[C@](C)(Cc2ccc(F)cc2)N(C(=O)OC(C)(C)C)[C@@H]1C(C)(C)C was tested. Which TGI (A498 renal) did it give?
**A.** 70 µM

**Q.** And the TGI (OVCAR-5 ovarian)?
**A.** > 100 µM

**Q.** And the TGI (SF-295 CNS)?
**A.** 50.7 µM

**Q.** What about the TGI (MALME-3M melanoma) of the same compound?
**A.** > 100 µM

**Q.** What about the TGI (BT-549 breast) of the same compound?
**A.** > 100 µM

**Q.** And the TGI (IGROV1 ovarian)?
**A.** > 100 µM

**Q.** What about the TGI (SNB-19 CNS) of the same compound?
**A.** > 100 µM

**Q.** And the TGI (NCI-H460 lung)?
**A.** > 100 µM

**Q.** And the TGI (SN12C renal)?
**A.** 32.4 µM

**Q.** And the TGI (T-47D breast)?
**A.** 90.1 µM

**Q.** What about the TGI (COLO 205 colon) of the same compound?
**A.** 39.7 µM

**Q.** And the TGI (NCI/ADR-RES ovarian)?
**A.** 44.8 µM

**Q.** What about the TGI (HCT-116 colon) of the same compound?
**A.** > 100 µM

**Q.** What about the TGI (RPMI-8226 leukemia) of the same compound?
**A.** 49.4 µM

**Q.** And the TGI (UACC-62 melanoma)?
**A.** > 100 µM

**Q.** What about the TGI (NCI-H23 lung) of the same compound?
**A.** > 100 µM

**Q.** And the TGI (SNB-75 CNS)?
**A.** > 100 µM

**Q.** What about the TGI (TK-10 renal) of the same compound?
**A.** > 100 µM

**Q.** And the TGI (SK-MEL-28 melanoma)?
**A.** > 100 µM

**Q.** And the TGI (HL-60(TB) leukemia)?
**A.** 26.2 µM

**Q.** And the TGI (ACHN renal)?
**A.** > 100 µM

**Q.** What about the TGI (SK-MEL-2 melanoma) of the same compound?
**A.** > 100 µM

**Q.** And the TGI (U251 CNS)?
**A.** > 100 µM

**Q.** What about the TGI (SK-MEL-5 melanoma) of the same compound?
**A.** 37.6 µM

**Q.** And the TGI (EKVX NSCLC)?
**A.** > 100 µM

**Q.** What about the TGI (NCI-H226 lung) of the same compound?
**A.** 67.3 µM

**Q.** What about the TGI (RXF 393 renal) of the same compound?
**A.** 59.9 µM

**Q.** And the TGI (MDA-MB-231 breast)?
**A.** > 100 µM

**Q.** What about the TGI (OVCAR-8 ovarian) of the same compound?
**A.** 91.7 µM

**Q.** What about the TGI (MDA-MB-435) of the same compound?
**A.** > 100 µM

**Q.** And the TGI (HT29 colon)?
**A.** 45.6 µM

**Q.** What about the TGI (KM12 colon) of the same compound?
**A.** > 100 µM

**Q.** What about the TGI (UACC-257 melanoma) of the same compound?
**A.** 92.3 µM

**Q.** What about the TGI (A549 NSCLC) of the same compound?
**A.** > 100 µM

**Q.** What about the TGI (DU-145 prostate) of the same compound?
**A.** > 100 µM

**Q.** What about the TGI (MCF7 breast) of the same compound?
**A.** 59.3 µM

**Q.** And the TGI (LOX IMVI melanoma)?
**A.** 53 µM

**Q.** What about the TGI (HOP-92 NSCLC) of the same compound?
**A.** > 100 µM

**Q.** What about the TGI (CAKI-1 renal) of the same compound?
**A.** > 100 µM

**Q.** And the TGI (CCRF-CEM leukemia)?
**A.** > 100 µM

**Q.** And the TGI (MOLT-4 leukemia)?
**A.** 40.6 µM

**Q.** And the TGI (OVCAR-3 ovarian)?
**A.** 84 µM

**Q.** What about the TGI (SF-268 CNS) of the same compound?
**A.** > 100 µM

**Q.** And the TGI (HCT-15 colon)?
**A.** > 100 µM

**Q.** And the TGI (UO-31 renal)?
**A.** > 100 µM

**Q.** And the TGI (786-0 renal)?
**A.** 68.4 µM

**Q.** What about the TGI (PC-3 prostate) of the same compound?
**A.** > 100 µM

**Q.** What about the TGI (HCC-2998 colon) of the same compound?
**A.** 76.2 µM

**Q.** And the TGI (MDA-N)?
**A.** > 100 µM

**Q.** And the TGI (SK-OV-3 ovarian)?
**A.** > 100 µM

**Q.** What about the TGI (K-562 leukemia) of the same compound?
**A.** 65.7 µM

**Q.** And the TGI (SW-620 colon)?
**A.** > 100 µM

**Q.** And the TGI (M14 melanoma)?
**A.** > 100 µM

**Q.** And the TGI (OVCAR-4 ovarian)?
**A.** > 100 µM

**Q.** And the TGI (NCI-H522 lung)?
**A.** 46.9 µM

**Q.** And the TGI (SF-539 CNS)?
**A.** > 100 µM

**Q.** What about the TGI (HOP-62 NSCLC) of the same compound?
**A.** > 100 µM

**Q.** What about the TGI (SR leukemia) of the same compound?
**A.** 43.9 µM

From PubChem BioAssay (NCI)
